Experimental data taken from patent US6759547B1, “5,6,7,8-tetrahydronaphthalen-2-yl 2,6-difluoroheptatrienoic acid derivatives having serum glucose reducing activity” (Allergan, Inc., priority 2003, dated 2004).

Columns and labels:
RXRγ = target: T1, RXRγ (Homo sapiens, UniProt P48443); test: holoreceptor transactivation assay, RXRγ; type: cell-based; details: for RXR Trans. efficacy γ: efficacy as a percentage compared to the standard compound; for EC50: holoreceptor assay, read-out: RXR Trans. EC50 γ
T1 construct: expressed in transfected cells
T1 sequence (P48443 1-463): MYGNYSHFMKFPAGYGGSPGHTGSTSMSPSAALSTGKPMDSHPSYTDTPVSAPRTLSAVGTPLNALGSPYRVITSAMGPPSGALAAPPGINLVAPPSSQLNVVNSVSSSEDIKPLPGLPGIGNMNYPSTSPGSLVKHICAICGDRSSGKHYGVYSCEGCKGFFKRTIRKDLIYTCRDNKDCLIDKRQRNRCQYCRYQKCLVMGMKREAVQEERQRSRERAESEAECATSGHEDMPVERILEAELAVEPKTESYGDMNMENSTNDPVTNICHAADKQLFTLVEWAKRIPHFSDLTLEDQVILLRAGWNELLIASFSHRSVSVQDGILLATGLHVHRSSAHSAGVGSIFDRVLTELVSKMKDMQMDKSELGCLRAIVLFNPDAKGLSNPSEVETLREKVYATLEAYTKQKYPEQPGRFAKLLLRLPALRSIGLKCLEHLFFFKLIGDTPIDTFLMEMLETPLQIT
Text: (§1) Particularly, the transactivation data pertaining to activation of the RAR receptors were obtained in the chimeric assay, and the transactivation data pertaining to the activation of RXR receptors were obtained in the holoreceptor assay.

[1] = tested on: female diabetic db/db mice; test: serum glucose, triglyceride and thyroxine levels in db/db mice; type: in vivo; details: female db/db mice, Compound 27 50 mg/kg
Method: An assay described below tests the effect of compounds of the invention on serum glucose, tryglyceride and thyroxine levels in female 9-10 weeks old db/db mice.
Blood samples (70 μl) were taken by orbital bleeding at 11:00 AM on day 0 (pre-treatment), day 3, and day 6. On day 7, a blood sample (700 μl) was taken at 11:00 AM and the animals were sacrificed. Glucose, triglyceride and thyroxine (T4) levels were determined on a Boehringer Manheim Hatachi Clinical Chemistry Analyzer using standard protocols provided by the manufacturer and reagents that were supplied in commercially available kits (glucose and T4; Boehringer Manheim; triglycerides: Roche Diagnostics). Seven animals were treated in each group.

RARγ [2] = target: T2, RARγ (Homo sapiens, UniProt P13631); test: ligand binding assay, RARγ; details: read-out: RAR Bind. K1 γ
T2 sequence (P13631 1-454): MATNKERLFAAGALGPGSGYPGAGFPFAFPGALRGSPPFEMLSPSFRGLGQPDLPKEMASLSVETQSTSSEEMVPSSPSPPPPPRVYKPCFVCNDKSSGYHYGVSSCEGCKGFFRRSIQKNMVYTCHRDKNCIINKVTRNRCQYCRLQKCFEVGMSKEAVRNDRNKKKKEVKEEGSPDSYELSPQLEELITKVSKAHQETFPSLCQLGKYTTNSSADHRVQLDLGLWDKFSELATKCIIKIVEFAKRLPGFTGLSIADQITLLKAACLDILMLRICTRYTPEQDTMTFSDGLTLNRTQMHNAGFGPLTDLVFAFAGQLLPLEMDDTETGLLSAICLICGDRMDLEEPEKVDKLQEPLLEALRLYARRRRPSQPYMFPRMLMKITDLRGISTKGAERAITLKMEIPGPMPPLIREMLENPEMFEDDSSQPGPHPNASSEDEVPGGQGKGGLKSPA
Text: The results obtained in this assay are expressed in EC50 numbers, as they are also in the chimeric receptor transactivation assay. The results of the ligand binding assay are expressed in Ki numbers.

RXRβ = target: T3, RXRβ (Homo sapiens, UniProt P28702); test: ligand binding assay, RXRβ; details: read-out: RXR Bind K1 β
T3 construct: expressed in transfected cells
T3 sequence (P28702 1-533): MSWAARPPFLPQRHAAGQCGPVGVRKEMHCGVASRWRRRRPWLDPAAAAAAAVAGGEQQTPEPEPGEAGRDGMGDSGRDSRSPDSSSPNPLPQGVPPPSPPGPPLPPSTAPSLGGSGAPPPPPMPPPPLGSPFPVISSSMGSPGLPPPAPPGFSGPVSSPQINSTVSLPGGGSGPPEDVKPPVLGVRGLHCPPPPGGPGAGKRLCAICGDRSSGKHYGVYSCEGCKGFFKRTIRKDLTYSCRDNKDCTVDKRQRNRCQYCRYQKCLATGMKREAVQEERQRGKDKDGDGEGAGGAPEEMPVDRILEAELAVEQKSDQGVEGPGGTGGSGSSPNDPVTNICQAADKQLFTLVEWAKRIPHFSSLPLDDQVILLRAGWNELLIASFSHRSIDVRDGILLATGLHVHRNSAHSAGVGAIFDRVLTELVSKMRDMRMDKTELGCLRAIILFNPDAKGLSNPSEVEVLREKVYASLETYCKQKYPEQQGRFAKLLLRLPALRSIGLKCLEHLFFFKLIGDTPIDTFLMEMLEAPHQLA
Text: The results of the ligand binding assay are expressed in Ki numbers.

RARα = target: T4, RARα (Homo sapiens, UniProt P10276); test: chimeric receptor transactivation assay, RARα; type: cell-based
T4 sequence (P10276 183-417 limits assumed): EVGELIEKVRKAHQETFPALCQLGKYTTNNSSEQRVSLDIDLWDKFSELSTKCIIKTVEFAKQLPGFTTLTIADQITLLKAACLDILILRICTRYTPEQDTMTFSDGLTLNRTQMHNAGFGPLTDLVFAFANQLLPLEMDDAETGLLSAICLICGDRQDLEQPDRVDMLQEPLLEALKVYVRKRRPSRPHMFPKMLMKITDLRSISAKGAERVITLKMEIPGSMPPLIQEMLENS
Text: (§2) One such assay is a chimeric receptor transactivation assay which tests for agonist-like activity in the RARα RARβ and RARγ receptor subtypes, and which is based on work published by Feigner P. L. and Holm M. (1989) Focus, 112 is described in detail in U.S. Pat. No. 5,455,265. The specification of U.S. Pat. No. 5,455,265 is hereby expressly incorporated by reference.
as §1, with “Table 1 discloses the activity of certain exemplary compounds of the invention in the above-described receptor transactivation and binding assays. Particularly,” for “Particularly,”

RARγ [3] = target: T5, RARγ (Homo sapiens, UniProt P13631); test: chimeric receptor transactivation assay, RARγ; type: cell-based
T5 sequence (P13631 185-419 limits assumed): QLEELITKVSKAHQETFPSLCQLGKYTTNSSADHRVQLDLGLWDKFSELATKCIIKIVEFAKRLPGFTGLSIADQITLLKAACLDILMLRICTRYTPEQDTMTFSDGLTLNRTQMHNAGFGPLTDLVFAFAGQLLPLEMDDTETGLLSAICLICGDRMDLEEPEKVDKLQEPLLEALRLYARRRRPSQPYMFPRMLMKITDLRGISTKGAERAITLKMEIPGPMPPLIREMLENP
Text: as §2
as §1, with “Table 1 discloses the activity of certain exemplary compounds of the invention in the above-described receptor transactivation and binding assays. Particularly,” for “Particularly,”

[4] = day 0 (pre-treatment), groups: standard compound 5 mg/kg
[5] = oral gavage daily, standard compound 5 mg/kg
[6] = efficacy as a percentage compared to the standard compound

RXR Trans. efficacy γ (RXRγ) [%]	EC50 (RXRγ) [nM]	T4 Day 7 ([1]; oral gavage daily for seven days, standard compound 5 mg/kg) [µg/dL]	Ki (RARγ [2]) [nM]	Ki (RXRβ) [nM]	EC50 (RARα; chimeric assay, read-out: RAR Trans. EC50 α) [nM]	RAR Trans. efficacy α (RARα; [6]) [%]	EC50 (RARγ [3]; chimeric assay, read-out: RAR Trans. EC50 γ) [nM]	RAR Trans. efficacy γ (RARγ [3]; [6]) [%]	SMILES	Glucose Day 0 [1, 4] [mg/dL]	Triglycerides Day 0 [1, 4] [mg/dL]	Glucose Day 3, 3 h [1, 5] [mg/dL]	Glucose Day 6, 3 h [1, 5] [mg/dL]	Triglycerides Day 3, 3 h [1, 5] [mg/dL]
23	3	3.9 ± 0.9	6400	20					CCOc1cc2c(cc1\C(CC)=C(F)/C=C/C(C)=C(\F)C(=O)O)C(C)(C)CCC2(C)C [Compound 27, (2Z,4E,6E)-7-(3-Ethoxy-5,5,8,8-tetramethyl-5,6,7,8-tetrahydro-naphthalen-2-yl)-2,6-difluoro-3-methyl-nona-2,4,6-trienoic acid]	384	152	290	225	106
36	8		940	60					CC/C(=C(F)/C=C/C(C)=C(\F)C(=O)O)c1cc2c(cc1OCOC)C(C)(C)CCC2(C)C [Compound 21, (2Z,4E,6E)-2,6-Difluoro-7-(3-methoxymethoxy-5,5,8,8-tetramethyl-5,6,7,8-tetrahydro-naphthalen-2-yl)-3-methyl-nona-2,4,6-trienoic acid]					
			250	65	5	12	180	28	CCCOc1cc2c(cc1\C(C)=C(F)/C=C/C(C)=C(\F)C(=O)O)C(C)(C)CCC2(C)C [Compound 11, (2Z,4E,6E)-2,6-Difluoro-3-methyl-7-(5,5,8,8-tetramethyl-3-propoxy-5,6,7,8-tetrahydro-naphthalen-2-yl)-octa-2,4,6-trienoic acid]					
